Results as given in ChEMBL document CHEMBL1201862, “PubChem BioAssay data set” (2004).
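Results reflect a 48-hour exposure of cells in 96-well plates to compound at five concentrations. Here, GI50 denotes the concentration required for 50% inhibition of growth.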 Active and inactive are the calls of the source. No stated cut-off is given here; in the data, active = GI50 up to about 1.1 µM and inactive = higher.

How the values were obtained:
Test in all cases: NCI anticancer screen, dose series, 48 h
SK-MEL-2 = test system: SK-MEL-2
SNB-75 = test system: SNB-75
SNB-19 = test system: SNB-19
EKVX = test system: EKVX
ACHN = test system: ACHN
MOLT-4 = test system: MOLT-4
HOP-92 = test system: HOP-92
T47D = test system: T47D
COLO 205 = test system: COLO 205
MDA-N = test system: MDA-N
NCI/ADR-RES = test system: NCI/ADR-RES
UACC-257 = test system: UACC-257
SK-OV-3 = test system: SK-OV-3
SK-MEL-28 = test system: SK-MEL-28
Malme-3M = test system: Malme-3M
RXF 393 = test system: RXF 393
OVCAR-3 = test system: OVCAR-3
M14 = test system: M14
SR = test system: SR
U-251 = test system: U-251

Structure (SMILES) | GI50 (SK-MEL-2) | GI50 (SNB-75) | GI50 (SNB-19) | GI50 (EKVX) | GI50 (ACHN) | GI50 (MOLT-4) | GI50 (HOP-92) | GI50 (T47D) | GI50 (COLO 205) | GI50 (MDA-N) | GI50 (NCI/ADR-RES) | GI50 (UACC-257) | GI50 (SK-OV-3) | GI50 (SK-MEL-28) | GI50 (Malme-3M) | GI50 (RXF 393) | GI50 (OVCAR-3) | GI50 (M14) | GI50 (SR) | GI50 (U-251)
COc1c(O)ccc2c1CN1CCc3cc4c(cc3C1C2)OCO4 (configuration not stated) | 30.6 µM (inactive) | 14.5 µM (inactive) | 31.3 µM (inactive) | 47.8 µM (inactive) | 16.3 µM (inactive) | 2.43 µM (inactive) | 51.8 µM (inactive) | 20.9 µM (inactive) | 36.1 µM (inactive) | 26.4 µM (inactive) | 20.9 µM (inactive) | 31 µM (inactive) | 23.1 µM (inactive) | 45.1 µM (inactive) | 33.9 µM (inactive) | 12.6 µM (inactive) | 26.4 µM (inactive) | 34.8 µM (inactive) | 0.441 µM (active) | 29.6 µM (inactive)
O=[N+]([O-])c1ccc(C2=Nn3c(nnc3-c3ccc(Cl)cc3)SC2)o1 | 10.5 µM (inactive) | 11.5 µM (inactive) | 13.3 µM (inactive) | 10.7 µM (inactive) | 13.9 µM (inactive) | 3.28 µM (inactive) | 3.29 µM (inactive) | 5.45 µM (inactive) | 2.05 µM (inactive) | 6.17 µM (inactive) | 14.3 µM (inactive) | 7.38 µM (inactive) | 19.3 µM (inactive) | 12.2 µM (inactive) | 6.46 µM (inactive) | 11.5 µM (inactive) | 3.98 µM (inactive) | 5.46 µM (inactive) | 0.394 µM (active) | 14.1 µM (inactive)
CSC(=S)Nc1cccc(C)n1 | > 100 µM (inactive) | > 100 µM (inactive) | > 100 µM (inactive) | > 100 µM (inactive) | > 100 µM (inactive) | > 100 µM (inactive) | > 100 µM (inactive) | > 100 µM (inactive) | > 100 µM (inactive) | > 100 µM (inactive) | > 100 µM (inactive) | > 100 µM (inactive) | > 100 µM (inactive) | > 100 µM (inactive) | > 100 µM (inactive) | > 100 µM (inactive) | 52.4 µM (inactive) | > 100 µM (inactive) | > 100 µM (inactive) | > 100 µM (inactive)
CNC1Cc2c[nH]c3cccc(c23)C12C=C(C)C(=O)O2 (configuration not stated) | > 100 µM (inactive) | > 100 µM (inactive) | > 100 µM (inactive) | > 100 µM (inactive) | > 100 µM (inactive) | > 100 µM (inactive) | > 100 µM (inactive) | > 100 µM (inactive) | > 100 µM (inactive) | > 100 µM (inactive) | > 100 µM (inactive) | > 100 µM (inactive) | > 100 µM (inactive) | > 100 µM (inactive) | > 100 µM (inactive) | > 100 µM (inactive) | > 100 µM (inactive) | > 100 µM (inactive) | 88.5 µM (inactive) | > 100 µM (inactive)
NC1=Nc2ccccc2Sc2nnc(-c3ccc(Cl)cc3)n21 | > 100 µM (inactive) | 17.3 µM (inactive) | 46.8 µM (inactive) | 75.3 µM (inactive) | 47 µM (inactive) | 13.9 µM (inactive) | 68.2 µM (inactive) | > 100 µM (inactive) | 76.7 µM (inactive) | > 100 µM (inactive) | 33.2 µM (inactive) | > 100 µM (inactive) | > 100 µM (inactive) | > 100 µM (inactive) | > 100 µM (inactive) | 22.8 µM (inactive) | > 100 µM (inactive) | > 100 µM (inactive) | 11.2 µM (inactive) | 13.7 µM (inactive)
COc1cc(CNC(=O)CCCCCCCCCCSSCCCCCCCCCCC(=O)NCc2ccc(O)c(OC)c2)ccc1O | > 10 µM (inactive) | > 10 µM (inactive) | > 10 µM (inactive) | > 10 µM (inactive) | > 10 µM (inactive) | > 10 µM (inactive) | > 10 µM (inactive) | > 10 µM (inactive) | > 10 µM (inactive) | > 10 µM (inactive) | > 10 µM (inactive) | > 10 µM (inactive) | > 10 µM (inactive) | > 10 µM (inactive) | > 10 µM (inactive) | 0.184 µM (active) | > 10 µM (inactive) | > 10 µM (inactive) | > 10 µM (inactive) | > 10 µM (inactive)
C[N+]12C=CC=C1C(N1CCCC1)c1scc(-c3ccc(Br)cc3)c12 (configuration not stated) | 6.18 µM (inactive) | 3.1 µM (inactive) | 4.22 µM (inactive) | 20.1 µM (inactive) | > 88.9 µM (inactive) | 15.8 µM (inactive) | 12 µM (inactive) | 4.61 µM (inactive) | 12.5 µM (inactive) | 27 µM (inactive) | > 100 µM (inactive) | 7.36 µM (inactive) | > 81.7 µM (inactive) | 19 µM (inactive) | 9.4 µM (inactive) | 10.2 µM (inactive) | 6.38 µM (inactive) | 27.7 µM (inactive) | 4.81 µM (inactive) | 2.09 µM (inactive)
Cc1ccc(NNc2cc(=O)[nH]c(=O)[nH]2)cc1Cl | 16.5 µM (inactive) | > 100 µM (inactive) | 24.4 µM (inactive) |  | 9.42 µM (inactive) | 4.98 µM (inactive) | 14.4 µM (inactive) | 9.95 µM (inactive) | 16.6 µM (inactive) | 15.2 µM (inactive) | 95.3 µM (inactive) | 17.5 µM (inactive) | 41.4 µM (inactive) | 17.2 µM (inactive) | 17.8 µM (inactive) | 16.5 µM (inactive) | 14.8 µM (inactive) | 13.7 µM (inactive) | 12.1 µM (inactive) | 16.4 µM (inactive)
COC(=O)C12OC(C)(C(CC(=O)OC(C)(C)C)C1=O)C1C(=O)N(c3ccccc3)C(=O)C12 (configuration not stated) | > 100 µM (inactive) | > 100 µM (inactive) | > 100 µM (inactive) |  | > 100 µM (inactive) | > 100 µM (inactive) | > 100 µM (inactive) | > 100 µM (inactive) | > 100 µM (inactive) | > 100 µM (inactive) | > 100 µM (inactive) | > 100 µM (inactive) | > 100 µM (inactive) | > 100 µM (inactive) | > 100 µM (inactive) | > 100 µM (inactive) | > 100 µM (inactive) | > 100 µM (inactive) | > 100 µM (inactive) | > 100 µM (inactive)
CC1=C2C(=O)c3ccccc3C(=O)[C@H]2[C@H]2CCO[C@H]2O1 | 18.8 µM (inactive) | 19.8 µM (inactive) | 37 µM (inactive) | 30.5 µM (inactive) | 20.9 µM (inactive) | 30.5 µM (inactive) | 20 µM (inactive) | 34.7 µM (inactive) | 42.2 µM (inactive) | 19.2 µM (inactive) | 27 µM (inactive) | 18.5 µM (inactive) | 50.4 µM (inactive) | 24.3 µM (inactive) | 19.1 µM (inactive) | 14.4 µM (inactive) | 19.1 µM (inactive) | 20.6 µM (inactive) | 35.2 µM (inactive) | 24.2 µM (inactive)
Cc1cc(-c2ccc(C(=O)C(c3ccccc3)(c3ccccc3)c3ccccc3)[nH]2)on1 | 14.6 µM (inactive) | 20.4 µM (inactive) | 19 µM (inactive) | 13.2 µM (inactive) |  | 21.8 µM (inactive) | 16.1 µM (inactive) | 37.8 µM (inactive) | 15.9 µM (inactive) | 16.6 µM (inactive) | 15.8 µM (inactive) | 32 µM (inactive) | 32.1 µM (inactive) | 17.6 µM (inactive) | 31.4 µM (inactive) | 2.2 µM (inactive) | 22.1 µM (inactive) | 22.8 µM (inactive) | 2.17 µM (inactive) | 12.9 µM (inactive)
CN(C)C(=S)/N=c1\ssc(=S)n1Cc1ccccc1 | 0.365 µM (active) | 0.203 µM (active) | 1.08 µM (active) | 2.15 µM (inactive) | 0.807 µM (active) | 0.569 µM (active) | 0.342 µM (active) | 6.31 µM (inactive) | 0.288 µM (active) | 0.0348 µM (active) | 0.119 µM (active) | 0.43 µM (active) | 0.434 µM (active) | 0.661 µM (active) | 0.243 µM (active) | 0.172 µM (active) | 0.168 µM (active) | 0.301 µM (active) | 0.129 µM (active) | 0.419 µM (active)
N#Cc1c(-c2ccccc2)cc(Nc2ccc(F)cc2)n2c1nc1ccccc12 | 1.43 µM (inactive) | 1.72 µM (inactive) | 3.14 µM (inactive) | 2.09 µM (inactive) | 2.7 µM (inactive) | 7.03 µM (inactive) | 1.01 µM (active) | 1.88 µM (inactive) | 1.58 µM (inactive) | 2.28 µM (inactive) | 2.26 µM (inactive) | 2.54 µM (inactive) | 2.43 µM (inactive) | 8.32 µM (inactive) | 3.66 µM (inactive) | 2.66 µM (inactive) | 3.13 µM (inactive) | 3.35 µM (inactive) | 3.89 µM (inactive) | 2.06 µM (inactive)
O=Cc1[nH]c(=O)[nH]c(=O)c1C(=O)O | > 100 µM (inactive) | 43.8 µM (inactive) | > 100 µM (inactive) | > 100 µM (inactive) | > 100 µM (inactive) | > 100 µM (inactive) | > 100 µM (inactive) | > 100 µM (inactive) | > 100 µM (inactive) | > 100 µM (inactive) | > 100 µM (inactive) | > 100 µM (inactive) | > 100 µM (inactive) | > 100 µM (inactive) | > 100 µM (inactive) | > 100 µM (inactive) | > 100 µM (inactive) | > 100 µM (inactive) | > 100 µM (inactive) | > 100 µM (inactive)
